The text below walks through data of patent US12098136B2, “Crystalline forms of lenalidomide” (BIOCON LIMITED, priority 2017, dated 2024).

Series [1] is described as follows: Hygroscopicity / weight change. The class given is physicochemical.
The nature of a further series: Thermal stability (neat). The class given is physicochemical.
For another series, the system named is Mouse. The following applies: in vivo; cited from earlier work.

As to `Nc1cccc2c1CN(C1CCC(=O)NC1=O)C2=O` (stereo not shown) [Lenalidomide-Resorcinol co-crystal], the weight change entry in series [1] was “does not exhibit significant weight change”. Besides, the Hygroscopicity entry in series [1] (compared with Lenalidomide hemihydrate) is listed as “lesser or comparable”. Further, in “Thermal stability (neat)”, the “thermally stable up to (temperature)” value is at least 80 °C.

For `O=C1NS(=O)(=O)c2ccccc21` [Saccharin], the “Acute oral toxicity (LD50)” value in the series with Mouse is reported as 17000 mg/kg.
